One assay has as its target T1, PSMA (Homo sapiens, UniProt Q04609).
T1 construct: host or cells: 22Rv1 human prostate cancer cells
In words: Relative binding affinity of DUPA-NIR conjugates with respect to DUPA-FITC on 22Rv1 cells, flow cytometry. Conditions: for affinity for PSMA (in words): in vitro binding affinity data; for Kd: conjugates with aromatic linkers, 1 h at 37° C., 100 nM DUPA-FITC. On the procedure: FIG. 3—Relative binding affinities of DUPA-NIR conjugates 1-9 with respect to DUPA-FITC (14). PSMA-positive 22Rv1 human prostate cancer cells were incubated for 1 h at 37° C. in the presence of 100 nM DUPA-FITC with increasing concentrations of DUPA-NIR conjugates. […] Cell bound fluorescence was assayed as using flow cytometry.
FIG. 6—Relative binding affinities of DUPA-NIR conjugates with aromatic amino acids linkers with respect to DUPA-FITC (14). PSMA-positive 22Rv1 human prostate cancer cells were incubated for 1 h at 37° C. in the presence of 100 nM DUPA-FITC with increasing concentrations of DUPA-NIR conjugates. […] Cell bound fluorescence was assayed as using flow cytometry.
FIG. 3 Relative binding affinities of DUPA-NIR conjugates 1-9 with respect to DUPA-FITC (14). PSMA-positive 22Rv1 human prostate cancer cells were incubated for 1 h at 37° C. in the presence of 100 nM DUPA-FITC with increasing concentrations of DUPA-NIR conjugates. […] Cell bound fluorescence was assayed as using flow cytometry.
in vitro studies. […] PSMA-positive 22Rv1 human prostate cancer cells were incubated for 1 h at 37° C. in the presence of 100 nM DUPA-FITC with increasing concentrations of DUPA-NIR conjugates. […] Cell bound fluorescence was assayed as using flow cytometry.
PSMA-positive 22Rv1 human prostate cancer cells were incubated for 1 h at 37° C. in the presence of 100 nM DUPA-FITC with increasing concentrations of DUPA-NIR conjugates. […] Cell bound fluorescence was assayed as using flow cytometry.
FIG. 24: Relative binding affinities of DUPA-NIR conjugates with respect to DUPA-FITC (14). PSMA-positive 22Rv1 human prostate cancer cells were incubated for 1 h at 37° C. in the presence of 100 nM DUPA-FITC with increasing concentrations of DUPA-NIR conjugates. […] Cell bound fluorescence was assayed as using flow cytometry.
PSMA-positive 22Rv1 human prostate cancer cells were incubated for 1 h at 37° C. in the presence of 100 nM DUPA-FITC with increasing concentrations of DUPA-NIR conjugates. […] Cell bound fluorescence was assayed as using flow cytometry
Cancer cells were incubated for 1 h at 37° C. in the presence of 100 nM DUPA-FITC with increasing concentrations of compound 15. […] Cell bound fluorescence was assayed as using flow cytometry.

Assay [1] has as its system human prostate tumor xenografts (22Rv1 cells). In words: Tissue biodistribution and tumor-to-tissue fluorescence ratio of DUPA-NIR conjugates, IVIS imaging. Format: in vivo, mice. To be noted: 2 h after tail vein injection. On the procedure:
In vivo studies. More specifically, biodistribution of DUPA-NIR conjugates 1-9 was monitored using fluorescence imaging of mice bearing human prostate tumor xenografts (22Rv1 cells). Male nude mice with 22Rv1 tumor xenografts were injected with DUPA-NIR dye conjugates via tail vein. The mice were euthanized 2 h after administration of the DUPA-NIR dye conjugate, selected tissues were harvested, and tissues were imaged with IVIS imager (ex=745 nm, em=ICG, exposure time=1 s).
The conjugates were also tested to show the ratio of tumor-to-tissue fluorescence. […] After imaging, fluorescence within a Region of interest (ROI) was measured for each tissue using In Vivo imaging software and tumor-to-tissue fluorescence was then calculated
in vivo studies. […] Male nude mice with 22Rv1 tumor xenografts were injected with DUPA-NIR dye conjugates via tail vein. The mice were euthanized 2 h after administration of the DUPA-NIR dye conjugate, selected tissues were harvested, and tissues were imaged with IVIS imager (ex=745 nm, em=ICG, exposure time=1 s). After imaging, fluorescence within a Region of interest (ROI) was measured for each tissue using In Vivo imaging software and tumor-to-tissue fluorescence was then calculated.
Male nude mice with 22Rv1 tumor xenografts were injected with DUPA-NIR dye conjugates via tail vein. The mice were euthanized 2 h after administration of the DUPA-NIR dye conjugate, selected tissues were harvested, and tissues were imaged with IVIS imager (ex=745 nm, em=ICG, exposure time=1 s). After imaging, fluorescence within a Region of interest (ROI) was measured for each tissue using In Vivo imaging software and tumor-to-tissue fluorescence was then calculated.
In vivo studies. […] Male nude mice with 22Rv1 tumor xenografts were injected with DUPA-NIR dye conjugates via tail vein. The mice were euthanized 2 h after administration of the DUPA-NIR dye conjugate, selected tissues were harvested, and tissues were imaged with IVIS imager (ex=745 nm, em=ICG, exposure time=1 s). After imaging, fluorescence within a Region of interest (ROI) was measured for each tissue using In Vivo imaging software and tumor-to-tissue fluorescence was then calculated.

For assay [2], the system named is 22Rv1 human prostate tumor xenograft. The assay can be described thus: Time dependent whole-body fluorescence imaging of DUPA-NIR conjugates, IVIS imager. It is filed as in vivo, mouse. To be noted: for whole-body imaging: 6 or 20 nmol, imaged at different time intervals. Here is the method: 22Rv1 human prostate tumor xenograft bearing mouse was injected with 20 nmol of 15 and imaged with IVIS imager (ex=745 nm, em=ICG, exposure time=1 s) at different time intervals.
22Rv1 human prostate tumor xenograft bearing mouse was injected with 20 nmol of 23 and imaged with IVIS imager (ex=745 nm, em=ICG, exposure time=1 s) at different time intervals.
22Rv1 human prostate tumor xenograft bearing mouse was injected with 20 nmol of 25 and imaged with IVIS imager (ex=745 nm, em=ICG, exposure time=1 s) at different time intervals
22Rv1 human prostate tumor xenograft bearing mouse was injected with 6 nmol of 35 and imaged with IVIS imager (ex=745 nm, em=ICG, exposure time=1 s) at different time intervals.
22Rv1 human prostate tumor xenograft bearing mouse was injected with 6 nmol of 36 and imaged with IVIS imager (ex=745 nm, em=ICG, exposure time=1 s) at different time intervals.
22Rv1 human prostate tumor xenograft bearing mouse was injected with 20 nmol of 39 and imaged with IVIS imager (ex=745 nm, em=ICG, exposure time=1 s) at different time intervals.
22Rv1 human prostate tumor xenograft bearing mouse was injected with 20 nmol of 40 and imaged with IVIS imager (ex=745 nm, em=ICG, exposure time=1 s) at different time intervals.
22Rv1 human prostate tumor xenograft bearing mouse was injected with 20 nmol of 41 and imaged with IVIS imager (ex=745 nm, em=ICG, exposure time=1 s) at different time intervals.
FIG. 25: Overlay of whole body or half body fluorescence image over white light images after adjusting the threshold. 22Rv1 human prostate tumor xenograft bearing mouse was injected with 20 nmol of 54 and imaged with IVIS imager (ex=745 nm, em=ICG, exposure time=1 s) at different time intervals.
22Rv1 human prostate tumor xenograft bearing mouse was injected with 20 nmol of 55 and imaged with IVIS imager (ex=745 nm, em=ICG, exposure time=1 s) at different time intervals.
22Rv1 human prostate tumor xenograft bearing mouse was injected with 20 nmol of 56 and imaged with IVIS imager (ex=745 nm, em=ICG, exposure time=1 s) at different time intervals.
22Rv1 human prostate tumor xenograft bearing mouse was injected with 20 nmol of 57 and imaged with IVIS imager (ex=745 nm, em=ICG, exposure time=1 s) at different time intervals
22Rv1 human prostate tumor xenograft bearing mouse was injected with 20 nmol of 58 and imaged with IVIS imager (ex=745 nm, em=ICG, exposure time=1 s) at different time intervals
22Rv1 human prostate tumor xenograft bearing mouse was injected with 20 nmol of 60 and imaged with IVIS imager (ex=745 nm, em=ICG, exposure time=1 s) at different time intervals.
in vivo studies. […] 22Rv1 human prostate tumor xenograft bearing mouse was injected with 20 nmol of 63 and imaged with IVIS imager (ex=745 nm, em=ICG, exposure time=1 s) at different time intervals.
22Rv1 human prostate tumor xenograft bearing mouse was injected with 6 nmol of 63 and imaged with IVIS imager (ex=745 nm, em=ICG, exposure time=1 s) at different time intervals.
22Rv1 human prostate tumor xenograft bearing mouse was injected with 20 nmol of 64 and imaged with IVIS imager (ex=745 nm, em=ICG, exposure time=1 s) at different time intervals.
22Rv1 human prostate tumor xenograft bearing mouse was injected with 6 nmol of 15 and imaged with IVIS imager (ex=745 nm, em=ICG, exposure time=1 s) at different time intervals.

The results in this text go back to patent US11484607B2, “PSMA-targeted NIR dyes and their uses” (On Target Laboratories, LLC, priority 2015, dated 2022).

T1 sequence (Q04609 whole entry): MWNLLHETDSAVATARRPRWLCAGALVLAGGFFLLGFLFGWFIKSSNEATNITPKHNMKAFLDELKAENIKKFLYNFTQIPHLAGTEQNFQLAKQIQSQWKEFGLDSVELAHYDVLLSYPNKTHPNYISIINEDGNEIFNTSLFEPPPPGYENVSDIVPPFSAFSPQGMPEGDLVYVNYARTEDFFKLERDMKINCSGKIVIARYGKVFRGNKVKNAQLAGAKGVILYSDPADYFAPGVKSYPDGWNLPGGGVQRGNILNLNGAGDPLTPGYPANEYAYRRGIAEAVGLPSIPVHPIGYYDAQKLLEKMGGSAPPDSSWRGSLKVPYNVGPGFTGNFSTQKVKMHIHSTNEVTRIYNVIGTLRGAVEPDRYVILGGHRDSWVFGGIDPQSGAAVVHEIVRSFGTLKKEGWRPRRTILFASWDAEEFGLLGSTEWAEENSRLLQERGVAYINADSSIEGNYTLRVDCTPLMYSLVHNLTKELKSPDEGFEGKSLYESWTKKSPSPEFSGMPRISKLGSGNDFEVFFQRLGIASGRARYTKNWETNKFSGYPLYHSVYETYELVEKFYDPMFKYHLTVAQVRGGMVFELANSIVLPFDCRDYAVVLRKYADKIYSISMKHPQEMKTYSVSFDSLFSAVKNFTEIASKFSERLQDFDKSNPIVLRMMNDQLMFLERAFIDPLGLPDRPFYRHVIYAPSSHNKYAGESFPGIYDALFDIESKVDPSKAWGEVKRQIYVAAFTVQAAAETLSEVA

For `CC1(C)C(/C=C/C2=C(Oc3ccc(C[C@H](NC(=O)[C@H](Cc4ccccc4)NC(=O)CCCCCCCNC(=O)CC[C@H](NC(=O)N[C@@H](CCC(=O)O)C(=O)O)C(=O)O)C(=O)O)cc3)C(=C/C=C3/N(CCCCS(=O)(=O)O)c4ccc(S(=O)(=O)O)cc4C3(C)C)/CCC2)=[N+](CCCCS(=O)(=O)[O-])c2ccc(S(=O)(=O)O)cc21` [Compound 15], the “affinity for PSMA (in words)” value on PSMA is given as “very high affinity”. Besides, the “tumor-to-background ratio (TBR), in words” value (from here on “tumor-to-background ratio”) in assay [1] is listed as “excellent”. Also, the “sites of accumulation in whole-body imaging” value in assay [2] (6 nmol, time dependent) is “accumulated in PSMA-positive tumors and kidneys”. Further, in assay [2], the whole-body imaging entry is given as “very good whole-body imaging data within 2-4 hours”.

In general, Kd refers to the constant that tells how readily two partners part at equilibrium. Read a high Kd as weaker binding. Regarding `CC1(C)C(/C=C/C2=C(Oc3ccc(C[C@H](NC(=O)[C@H](Cc4ccccc4)NC(=O)[C@H](Cc4ccccc4)NC(=O)CCCCCCCNC(=O)CC[C@H](NC(=O)N[C@@H](CCC(=O)O)C(=O)O)C(=O)O)C(=O)O)cc3)C(=C/C=C3/N(CCCCS(=O)(=O)O)c4ccc(S(=O)(=O)O)cc4C3(C)C)/CCC2)=[N+](CCCCS(=O)(=O)[O-])c2ccc(S(=O)(=O)O)cc21` [Compound 23], at PSMA, binding was put at a Kd of 7.5 nM and the “affinity for PSMA (in words)” value is on record as “very high affinity”. For the same molecule, the whole-body imaging entry in assay [2] is given as “very good whole-body imaging data within 2-4 hours”.

For `CC1(C)C(/C=C/C2=C(SC[C@H](NC(=O)[C@H](Cc3ccccc3)NC(=O)CCCCCCCNC(=O)CC[C@H](NC(=O)N[C@@H](CCC(=O)O)C(=O)O)C(=O)O)C(=O)O)C(=C/C=C3/N(CCCCS(=O)(=O)O)c4ccc(S(=O)(=O)O)cc4C3(C)C)/CCC2)=[N+](CCCCS(=O)(=O)[O-])c2ccc(S(=O)(=O)O)cc21` [Compound 25], on PSMA, binding was put at a Kd of 6.3 nM and the “affinity for PSMA (in words)” value is recorded as “very high affinity”. Further, the whole-body imaging entry in assay [2] is “very good whole-body imaging data within 2-4 hours”.

Regarding `CC1(C)C(/C=C/C2=C(Oc3ccc(C[C@H](NC(=O)[C@H](Cc4ccccc4)NC(=O)CCOCCOCCNC(=O)CC[C@H](NC(=O)N[C@@H](CCC(=O)O)C(=O)O)C(=O)O)C(=O)O)cc3)C(=C/C=C3/N(CCCCS(=O)(=O)O)c4ccc(S(=O)(=O)O)cc4C3(C)C)/CCC2)=[N+](CCCCS(=O)(=O)[O-])c2ccc(S(=O)(=O)O)cc21` [Compound 35], on PSMA, the Kd was found to be 23.9 nM. The “tumor-to-background ratio” value in assay [1] is reported as “excellent”. The whole-body imaging result in assay [2] was “very good whole-body imaging data within 2-4 hours”.

`CC1(C)C(/C=C/C2=C(Oc3ccc(C[C@H](NC(=O)[C@](C)(Cc4ccc(F)cc4)NC(=O)CCOCCOCCNC(=O)CC[C@H](NC(=O)N[C@@H](CCC(=O)O)C(=O)O)C(=O)O)C(=O)O)cc3)C(=C/C=C3/N(CCCCS(=O)(=O)O)c4ccc(S(=O)(=O)O)cc4C3(C)C)/CCC2)=[N+](CCCCS(=O)(=O)[O-])c2ccc(S(=O)(=O)O)cc21` [Compound 36]: at PSMA, the “affinity for PSMA (in words)” value is recorded as “very high affinity”. Further, in assay [2], the whole-body imaging entry is “very good whole-body imaging data within 2-4 hours”.

Take `CC1(C)C(/C=C/C2=C(Oc3ccc(C[C@H](NC(=O)[C@H](CCCNC(=N)N)NC(=O)[C@H](CCCNC(=N)N)NC(=O)CCCCCCCNC(=O)CC[C@H](NC(=O)N[C@@H](CCC(=O)O)C(=O)O)C(=O)O)C(=O)O)cc3)C(=C/C=C3/N(CCCCS(=O)(=O)O)c4ccc(S(=O)(=O)O)cc4C3(C)C)/CCC2)=[N+](CCCCS(=O)(=O)[O-])c2ccc(S(=O)(=O)O)cc21` [Compound 39]: the whole-body imaging entry in assay [2] is reported as “very good whole-body imaging”.

In the case of `CC1(C)C(/C=C/C2=C(Oc3ccc(C[C@H](NC(=O)[C@H](CCCNC(=N)N)NC(=O)[C@H](Cc4ccccc4)NC(=O)CCCCCCCNC(=O)CC[C@H](NC(=O)N[C@@H](CCC(=O)O)C(=O)O)C(=O)O)C(=O)O)cc3)C(=C/C=C3/N(CCCCS(=O)(=O)O)c4ccc(S(=O)(=O)O)cc4C3(C)C)/CCC2)=[N+](CCCCS(=O)(=O)[O-])c2ccc(S(=O)(=O)O)cc21` [Compound 41], at PSMA, the “affinity for PSMA (in words)” value is reported as “very high affinity”. Further, the whole-body imaging entry in assay [2] is “very good whole-body imaging”.

On to `CC1(C)C(=CC=C2CCCC(C=CC3=[N+](CCCCS(=O)(=O)[O-])c4ccc(S(=O)(=O)O)cc4C3(C)C)=C2Oc2ccc(CC(NC(=O)CC(NC(=O)C(Cc3ccccc3)NC(=O)C(Cc3ccccc3)NC(=O)CCCCCCCNC(=O)CCC(NC(=O)NC(CCC(=O)O)C(=O)O)C(=O)O)C(=O)O)C(=O)O)cc2)N(CCCCS(=O)(=O)O)c2ccc(S(=O)(=O)O)cc21` (stereo not drawn) [Compound 49], for which the “affinity for PSMA (in words)” value at PSMA is “low binding affinity”. In assay [1], the “fluorescence intensity in the tumor / tumor accumulation” value is listed as “very high tumor accumulation (high fluorescence intensity)” and the “tumor-to-background ratio” value is reported as “good”.
